Measurements published in patent EP4682145A1, “BENZOHETEROCYCLIC COMPOUND, AND PREPARATION METHOD THEREFOR AND USE THEREOF” (Cascade Pharmaceuticals, Inc., priority 2023, dated 2024).
Marks after values point to notes of the source that are not given here.

What was measured:
[1] = system: normal male C57BL6/J mice; experiment: In vivo hypoglycemia risk assay in fasted normal C57BL6/J mice; conditions: for Blood Glucose / AUC 0-120 minutes: fasted 16 hours; for AUC 0-120 minutes: blood glucose AUC
Experimental: The blank control group was orally administered with the vehicle control (2% DMO + 15% solutol + 83% DDW solution), with a dosing volume of 10 mL/kg. […] […] Data were expressed as mean ± standard deviation. One-way ANOVA was employed for statistical analysis, with p < 0.05 considered statistically significant.

[2] = system: high-fat diet-induced DIO mice; experiment: Oral glucose tolerance test (OGTT) in high-fat diet-induced DIO mice; assay type: in vivo
Excerpt: Normal male C57BL6/J mice (8-9 weeks old) were housed 3-4 per cage and fed a high-fat, high-cholesterol, high-fructose diet (D09100310, Research Diets) for 13 weeks with unrestricted access to water. After 13 weeks of high-fat, high-cholesterol, high-fructose diet feeding, the mice were randomly divided into 5 groups based on body weight and blood glucose levels, with age-matched mice fed a normal diet serving as the normal blank control group, with 6 mice in each group. Under fasting conditions (16 hours), the test compound 169 was administered via oral gavage at different concentrations of 0.03, 0.1, 0.6, and 3 mg/kg, while the normal blank control and model control groups were given the vehicle (15% solutol + 85% DDW solution), with a dosing volume of 10 mL/kg. On the day of administration, blood glucose levels in mice were measured. 2 hours after oral gavage administration, each group was given 2 g/kg of glucose orally. Blood glucose levels were measured at 0, 15, 30, 60, 90, 120, and 150 minutes after glucose administration.
Blood glucose levels were measured at 0, 15, 30, 60, and 120 minutes after glucose administration. […]
Note: BG0, BG15, BG30, BG60, BG90, and BG120 represent the blood glucose levels at 0, 15, 30, 60, 90, and 120 minutes after glucose administration, respectively.
Data were expressed as mean ± standard deviation. One-way ANOVA was employed for statistical analysis, with p < 0.05 considered statistically significant.

COc1ccc(F)c(N2CCC(c3oc4cc([C@@H](CC(=O)O)C5CC5)ccc4c3-c3ccc(C(C)(C)C)cc3)CC2)c1 [Compound 169]
Blood Glucose ([1]; 3 mg/kg oral, 0 minutes after administration): 4.3 ± 0.59 mmol/L | Blood Glucose ([1]; 3 mg/kg oral, 30 minutes after administration): 5.42 ± 0.56 mmol/L | Blood Glucose ([1]; 3 mg/kg oral, 60 minutes after administration): 4.73 ± 0.82 mmol/L | Blood Glucose ([1]; 3 mg/kg oral, 120 minutes after administration): 4.1 ± 0.51 mmol/L | Blood Glucose ([1]; 10 mg/kg oral, 0 minutes after administration): 4.65 ± 0.75 mmol/L | Blood Glucose ([1]; 10 mg/kg oral, 30 minutes after administration): 6.1 ± 1.01 mmol/L | Blood Glucose ([1]; 10 mg/kg oral, 60 minutes after administration): 4.92 ± 1.01 mmol/L | Blood Glucose ([1]; 10 mg/kg oral, 120 minutes after administration): 4 ± 0.87 mmol/L | AUC 0-120 minutes ([1]; 3 mg/kg oral): 563 ± 34.91 mmol·min | AUC 0-120 minutes ([1]; 10 mg/kg oral): 594 ± 49.00 mmol·min | risk of hypoglycemia ([1]; judged from AUC0-120 min versus blank control, Glibenclamide 10 mg/kg, compound 169 at 3 mg/kg and 10 mg/kg): no risk of hypoglycemia | Blood Glucose ([2]; 0.03 mg/kg oral gavage, 0 minutes after glucose (2 g/kg)): 10.78 ± 0.81 mmol/L | Blood Glucose ([2]; 0.03 mg/kg oral gavage, 15 minutes after glucose): 20.08 ± 2.94 mmol/L | Blood Glucose ([2]; 0.03 mg/kg oral gavage, 30 minutes after glucose): 16.63 ± 3.66 mmol/L | Blood Glucose ([2]; 0.03 mg/kg oral gavage, 60 minutes after glucose): 14.62 ± 3.62 mmol/L | Blood Glucose ([2]; 0.03 mg/kg oral gavage, 90 minutes after glucose): 14.92 ± 2.34 mmol/L | Blood Glucose ([2]; 0.03 mg/kg oral gavage, 150 minutes after glucose): 10.75 ± 1.1 mmol/L | Blood Glucose ([2]; 0.1 mg/kg oral gavage, 0 minutes after glucose (2 g/kg)): 9.28 ± 2.89 mmol/L | Blood Glucose ([2]; 0.1 mg/kg oral gavage, 15 minutes after glucose): 17.65 ± 2.09 mmol/L | Blood Glucose ([2]; 0.1 mg/kg oral gavage, 30 minutes after glucose): 18.67 ± 4.11 mmol/L | Blood Glucose ([2]; 0.1 mg/kg oral gavage, 60 minutes after glucose): 13.53 ± 3.03 mmol/L | Blood Glucose ([2]; 0.1 mg/kg oral gavage, 90 minutes after glucose): 10.27 ± 1.68 mmol/L | Blood Glucose ([2]; 0.1 mg/kg oral gavage, 120 minutes after glucose): 10.05 ± 1.47 mmol/L | Blood Glucose ([2]; 0.1 mg/kg oral gavage, 150 minutes after glucose): 10.17 ± 1.68 mmol/L | Blood Glucose ([2]; 0.6 mg/kg oral gavage, 0 minutes after glucose (2 g/kg)): 9.57 ± 2.06 mmol/L | Blood Glucose (mmol/L) ([2]; 0.6 mg/kg oral gavage, 15 minutes after glucose): 16.48± 2.15** * mmol/L | Blood Glucose ([2]; 0.6 mg/kg oral gavage, 30 minutes after glucose): 12.97 ± 3.71 mmol/L | Blood Glucose ([2]; 0.6 mg/kg oral gavage, 60 minutes after glucose): 11.98 ± 2.95 mmol/L | Blood Glucose ([2]; 0.6 mg/kg oral gavage, 90 minutes after glucose): 11.27 ± 2.66 mmol/L | Blood Glucose ([2]; 0.6 mg/kg oral gavage, 120 minutes after glucose): 9.12 ± 2.14 mmol/L | Blood Glucose ([2]; 0.6 mg/kg oral gavage, 150 minutes after glucose): 9.52 ± 1.62 mmol/L | Blood Glucose ([2]; 3 mg/kg oral gavage, 0 minutes after glucose (2 g/kg)): 13.02 ± 2.46 mmol/L | Blood Glucose ([2]; 3 mg/kg oral gavage, 15 minutes after glucose): 17.22 ± 2.02 mmol/L | Blood Glucose ([2]; 3 mg/kg oral gavage, 30 minutes after glucose): 14 ± 3.49 mmol/L | Blood Glucose ([2]; 3 mg/kg oral gavage, 60 minutes after glucose): 10.52 ± 2.23 mmol/L | Blood Glucose ([2]; 3 mg/kg oral gavage, 90 minutes after glucose): 9.88 ± 0.85 mmol/L | Blood Glucose ([2]; 3 mg/kg oral gavage, 120 minutes after glucose): 8.3 ± 1.63 mmol/L | Blood Glucose (mmol/L) ([2]; 3 mg/kg oral gavage, 150 minutes after glucose): 7.37±1.44* * mmol/L | AUC0-150 min ([2]; blood glucose AUC, 0.03 mg/kg oral gavage): 2194 ± 132.70 mmol·min | AUC0-150 min (mmol*min) ([2]; blood glucose AUC, 0.1 mg/kg oral gavage, 0.1 mg/kg): significantly reduced | AUC0-150 min (mmol*min) ([2]; blood glucose AUC, 0.6 mg/kg oral gavage, 0.6 mg/kg): 1725± 119.90 **** mmol*min | AUC0-150 min (mmol*min) ([2]; blood glucose AUC, 0.6 mg/kg oral gavage, listed as compound 169, 0.6 mg/kg): significantly reduced | AUC0-150 min (mmol*min) ([2]; blood glucose AUC, 3 mg/kg oral gavage, 3 mg/kg): 1642±91.83 **** mmol*min | AUC0-150 min (mmol*min) ([2]; blood glucose AUC, 3 mg/kg oral gavage, listed as compound 169, 3 mg/kg): significantly reduced
